Laboratory results as given in US20240150279A1, “C PRIME AGENTS FOR TREATING METABOLIC DISORDERS” (The University of Toledo, priority 2021, published 2024).

Test system: PDX1-BIRC5-Survivin axis

## CCC(C)(C)C(=O)OC1CC(C)C=C2C=CC(C)C(CCC(O)CC(O)CC(=O)NO)C21 (stereo not shown) [Sim-CONHOH, Simvastatin-NHOH]
  activity in the PDX1-BIRC5-Survivin bioassays: active
